Data taken from publication PMC11107383, “Integrating Reinforcement Learning and Monte Carlo Tree Search for enhanced neoantigen vaccine design” (Briefings in Bioinformatics, 2024).
Entries after “also recorded” stand apart in the source; their conditions may differ. Ends that are not written are not given here.

Columns and labels:
HLA-A^*11:01 [1] = biological target: T1, HLA-A^*11:01 (Homo sapiens, UniProt P04439, A114D/D185E/E176A/F33Y/L180Q/S129P/T187R); assay: Peptide competitive binding assay (FITC-labeled reference peptide KVFPKALINK, flow cytometry) in HMy2.CIR cells expressing HLA-A^*11:01; conditions: 24 h, 4°C; for shift in the fluorescence (flow cytometry): FITC-labeled reference peptide displaced; for 5 μM Inhibition (%): competitor 5 μM
T-cell responses = conditions: IFN-γ ELISPOT; HLA-A^*11:01 pair; cited from earlier work
Excerpt: (§1) A peptide sequence, ELQRREVYK, originating from the E6 oncoprotein of HPV type 52, has been recognized as an HLA-A^*11:01-restricted peptide through an in vitro peptide-binding assay. […] Considering the high prevalence of HLA-A^*11:01 allele (21.143%) in the Chinese pop ...

HLA-A^*11:01 [2] = biological target: T1, HLA-A^*11:01; conditions: in vitro peptide-binding assay; cited from earlier work
Excerpt: as §1

[3] = FITC-labeled reference peptide KVFPKALINK 300 nM, flow cytometry

Sequence | shift in the fluorescence (flow cytometry) (HLA-A^*11:01 [1]) | shift in the fluorescence (flow cytometry) (HLA-A^*11:01 [1]; listed as mutated peptide) | IC50 (HLA-A^*11:01 [1]; bracketed from 5 and 15 μM inhibition) | 5 μM Inhibition (%) (HLA-A^*11:01 [1]; [3]) | 15 μM Inhibition (%) (HLA-A^*11:01 [1]; competitor 15 μM, FITC-labeled reference peptide KVFPKALINK 300 nM, flow cytometry) | T-cell response (T-cell responses) | HLA restriction (HLA-A^*11:01 [2])
ALQRREVYK [ALQRREVYK] | leftward shift in the fluorescence intensity | leftward shift in the fluorescence peak | 5 to 15 µM | 44.83% | 77.55% |  | 
ELQRREVYK [peptide originating from the E6 oncoprotein of HPV type 52] | does not exhibit a discernible shift; also recorded: no discernible shift |  |  | 24.21% |  | does not elicit positive T-cell responses | HLA-A^*11:01-restricted
